Literature values as cited in patent US20230210937A1, “COMPOSITIONS AND METHODS FOR THE TREATMENT AND/OR PROPHYLAXIS OF DIABETES AND OTHER CONDITIONS” (LIFELOCK BIOSCIENCE SOLUTIONS INC., priority 2019, published 2023).

Key:
[1] = tested on: colon cancer cell line Caco-2
[2] = target: PAK1 (Rattus norvegicus, UniProt P35465); details: skeletal muscle cells, co-immunoprecipitation
[3] = target: mTORC1 (Homo sapiens, UniProt P42345)
[4] = Caco-2, 100 ng/mL PMA, 2.5 mM IP6

Sequence of PAK1 (P35465 2-544 limits assumed): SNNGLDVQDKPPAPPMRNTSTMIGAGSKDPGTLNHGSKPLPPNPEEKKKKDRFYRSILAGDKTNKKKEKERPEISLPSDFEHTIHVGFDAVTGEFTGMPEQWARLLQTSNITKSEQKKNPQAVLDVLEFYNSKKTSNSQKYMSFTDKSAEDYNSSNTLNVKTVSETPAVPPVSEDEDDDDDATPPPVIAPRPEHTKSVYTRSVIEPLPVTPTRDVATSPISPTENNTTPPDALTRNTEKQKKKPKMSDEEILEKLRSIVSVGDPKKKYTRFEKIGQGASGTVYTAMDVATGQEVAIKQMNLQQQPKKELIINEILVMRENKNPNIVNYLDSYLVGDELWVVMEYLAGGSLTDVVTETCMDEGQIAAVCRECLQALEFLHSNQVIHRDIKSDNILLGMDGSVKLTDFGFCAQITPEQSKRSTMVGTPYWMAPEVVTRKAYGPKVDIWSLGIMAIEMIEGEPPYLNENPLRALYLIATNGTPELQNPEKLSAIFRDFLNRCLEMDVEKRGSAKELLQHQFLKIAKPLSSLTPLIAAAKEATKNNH

## O=P(O)(O)OC1C(OP(=O)(O)O)C(OP(=O)(O)O)C(OP(=O)(O)O)C(OP(=O)(O)O)C1OP(=O)(O)O [IP6, (1R,2S,3R,4R,5S,6s)-cyclohexane-1,2,3,4,5,6-hexayl hexakis[dihydrogen (phosphate)]]
[1]; [4]
  MMP-1 expression, PMA and IP6 in comparison to PMA-stimulated cells: significant decrease
  MMP-9 transcription induced by PMA: down-regulated
  level of both MMP-2 and MMP-3 mRNAs in PMA-stimulated cells: decreased
[1]; Caco-2, 2.5 mM of IP6, 6 and 12 h
  MMP-2, MMP-3, MMP-10, MMP-13, and TIMP-1 expression: significant decrease

## Oc1ccc2ccccc2c1SSc1c(O)ccc2ccccc12 [IPA3]
[2]
  insulin-stimulated associations of p41ARC, N-WASP, cortactin and actin: ablated

## COc1cc(/C=C/C(=O)CC(=O)/C=C/c2ccc(O)c(OC)c2)ccc1O [curcumin, (1E,6E)-1,7-Bis(4-hydroxy-3-methoxyphenyl)hepta-1,6-diene-3,5-dione]
[3]
  TSC1/2 interaction: did not alter
[3]; leading to inhibition of mTORC1 activity
  raptor-mTOR association: able to dissociate raptor from mTOR
[3]; numerous cancer cell lines
  phosphorylation of p70S6kinase 1 (S6K1) and 4E-BP1: inhibits
